What is called IC50 is the concentration at which inhibition is half-maximal. Read a low IC50 as greater potency in that assay.

These results are taken from BindingDB's records for patent US20250019387 (Frontier Medicines, 2025).

In this assay the target is GTPase KRas [G12C,C51S,C80L,C118S]/RAF proto-oncogene serine/threonine-protein kinase (Homo sapiens, UniProt P01116, C118S/C51S/C80L/G12C). Put plainly: Inhibition of KRASG12C and cRAF Binding. How it is done:
Compounds were diluted in 100% DMSO and each compound concentration was spotted at 200 nl/well onto low volume, white 384 well plates. […] Plates were incubated for 19-20 hours. A mixture of RBD and the AlphaScreen streptavidin donor and glutathione acceptor beads diluted in 25 mM Hepes, pH 7.4, 150 mM NaCl, 5 mM MgCl2, 0.01% TritonX-100 and 2% DMSO was then added at 10 ul/well and incubated for 60-90 minutes before the samples were read for emission at 570 nm after excitation of the donor beads at 680 nm. All incubations were performed at room temperature. […] IC50s were determined using nonlinear regression fit of [inhibitor]vs. response (4 parameters).

Chain of GTPase KRas [G12C,C51S,C80L,C118S]/RAF proto-oncogene serine/threonine-protein kinase (P01116 1-169 G12C/C51S/C80L/C118S): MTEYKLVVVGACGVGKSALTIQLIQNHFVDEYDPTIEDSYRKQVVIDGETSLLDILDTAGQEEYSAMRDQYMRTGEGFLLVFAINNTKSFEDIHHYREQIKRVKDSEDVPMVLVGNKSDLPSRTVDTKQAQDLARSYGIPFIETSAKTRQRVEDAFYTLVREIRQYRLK

Regarding `C=CC(=O)[C@]12CCN(c3nc(OC[C@@H]4CCCN4C)nc4c3CCN(c3cccc5cccc(Cl)c35)C4)C[C@H]1C2` [US20250019387, Example 44], the IC50 is less than 10 nM.
